In patent publication US6737383B1, “Herbicidal oxadiazolidines” (priority 1999, dated 2004):

Columns and labels:
crabgrass = assay: Test A crabgrass; format: in vivo, Digitaria spp.; details: 0 to 10 scale where 0 is no effect and 10 is complete control
Outline: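 Visual injury score, 0 (no effect) to 10 (complete control), vs untreated controls at ~11 d in greenhouse. Pre: soil drench on sandy loam. Post: spray to runoff, 1–2 leaf stage.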

field violet [1] = assay: Test E field violet; format: in vivo, Viola arvensis; details: Preemergence
spring wheat [2] = assay: Test E spring wheat; format: in vivo, Triticum aestivum; details: Postemergence
Description: (§1) Compounds evaluated in this test were formulated in a non-phytotoxic solvent mixture which included a surfactant and applied to plants that were in the 1- to 4-leaf stage (postemergence application). A mixture of sandy loam soil and greenhouse potting mix in a 60:40 ratio was used for the postemergence test.
(§2) Plantings of these crops and weed species were adjusted to produce plants of appropriate size for the postemergence test. All plant species were grown using normal greenhouse practices. Crop and weed species include annual bluegrass (Poa annua), blackgrass (Alopecurus myosuroides), black nightshade (Solanum nigra), chickweed (Stellaria media), common poppy (Papaver rhoeas), deadnettle (Lamium amplexicaule), downy brome (Bromus tectorum), field violet (Viola arvensis), galium (Galium aparine), green foxtail (Setaria viridis), Italian ryegrass (Lolium multiflorum), jointed goatgrass (Aegilops cylindrica), kochia (Kochia scoparia), lambsquarters (Chenopodium album), littleseed canarygrass (Phalaris minor), rape (Brassica napus), redroot pigweed (Amaranthus retroflexus), Russian thistle (Salsola kali), scentless chamomile (Matricaria inodora), spring barley (Hordeum vulgare), sugar beet (Beta vulgaris), sunflower (Helianthus annuus), ivyleaf speedwell (Veronica hederaefolia), spring wheat (Triticum aestivum), winter wheat (Triticum aestivum), wild buckwheat (Polygonum convolvulus), wild mustard (Sinapis arvensis), wild oat (Avena fatua), windgrass (Apera spica-venti) and winter barley (Hordeum vulgare).
(§3) Treated plants and untreated controls were maintained in a greenhouse for approximately 21 to 28 days, after which all treated plants were compared to untreated controls and visually evaluated. […] A dash response (-) means no test result.

sugar beet = assay: Test E sugar beet; format: in vivo, Beta vulgaris; details: Postemergence
Outline: (§4)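 Plants were grown under normal greenhouse practice; for postemergence, in sandy loam soil mixed 60:40 with potting mix, treated at the 1- to 4-leaf stage. The compound was in a non-phytotoxic solvent carrying a surfactant. After roughly 21 to 28 days plants were scored visually against untreated plants.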

blackgrass = assay: Test E blackgrass; format: in vivo, Alopecurus myosuroides; details: Postemergence
Description: as §1, §2, §3

spring wheat [3] = assay: Test E spring wheat; format: in vivo, Triticum aestivum; details: Preemergence
littleseed canarygrass = assay: Test E littleseed canarygrass; format: in vivo, Phalaris minor; details: Postemergence
Description: as §1, §2, §3

spring barley = assay: Test E spring barley; format: in vivo, Hordeum vulgare; details: Preemergence
wild oat = assay: Test E wild oat; format: in vivo, Avena fatua; details: Postemergence
Outline: as §4

common poppy = assay: Test E common poppy; format: in vivo, Papaver rhoeas; details: Postemergence
Description: as §1, §2, §3

field violet [4] = assay: Test E field violet; format: in vivo, Viola arvensis; details: Postemergence
Description: as §1, §2, §3

wild buckwheat = assay: Test E wild buckwheat; format: in vivo, Polygonum convolvulus; details: Postemergence
Outline: as §4

windgrass = assay: Test E windgrass; format: in vivo, Apera spica-venti; details: Postemergence, Rate 62 g/ha; 0 to 100 scale
Outline: as §4

[5] = Rate 62 g/ha, 0 to 100 scale, 0 no effect, 100 complete control
[6] = Rate 125 g/ha, 0 to 100 scale (0 no effect, 100 complete control)
[7] = Rate 250 g/ha, 0 to 100 scale (0 no effect, 100 complete control)

In the case of CC(C)N(C(=O)n1oc(=O)n(C2CCCCC2C(F)(F)F)c1=O)c1ccc(F)cc1 (stereo not shown) [Compound 99], the “Plant response rating, Crabgrass” value (crabgrass; Postemergence, Rate 1000 g/ha) is reported as 7 and the “Plant response rating, Crabgrass” value (crabgrass; Pre-emergence, Rate 2000 g/ha) is reported as 10.

With CCN(CC)C(=O)n1oc(=O)n(-c2ccc(OC)cc2)c1=O [Compound 1] the “Plant response rating, Crabgrass” value (crabgrass; Postemergence, Rate 1000 g/ha) was 5 and the “Plant response rating, Crabgrass” value (crabgrass; Pre-emergence, Rate 2000 g/ha) was 9.

For CC(C)Oc1cc(-n2c(=O)on(C(=O)N(c3ccc(F)cc3)C(C)C)c2=O)c(Cl)cc1Cl [Compound 43], the “Plant response rating, Crabgrass” value (crabgrass; Postemergence, Rate 1000 g/ha) was 0 and the “Plant response rating, Crabgrass” value (crabgrass; Pre-emergence, Rate 2000 g/ha) was 1.

With CCn1c(=O)on(C(=O)N(c2ccc(Cl)cc2)C(C)C)c1=O [Compound 108] the “Plant response rating, Field violet” value (field violet [1]; [5]) was 15, the “Plant response rating, Field violet” value (field violet [1]; [6]) was 0 and the “Plant response rating, Field violet” value (field violet [1]; Rate 250 g/ha, 0 to 100 scale) was 20. The “Plant response rating, Spring Wheat” value (spring wheat [2]; Rate 62 g/ha, 0 to 100 scale) was 10, the “Plant response rating, Spring Wheat” value (spring wheat [2]; Rate 125 g/ha, 0 to 100 scale) was 10 and the “Plant response rating, Spring Wheat” value (spring wheat [2]; [7]) was 20. The “Plant response rating, Sugar beet” value (sugar beet; Rate 62 g/ha, 0 to 100 scale) was 5, the “Plant response rating, Sugar beet” value (sugar beet; Rate 125 g/ha, 0 to 100 scale) was 10 and the “Plant response rating, Sugar beet” value (sugar beet; [7]) was 20. For the same compound, the “Plant response rating, Blackgrass” value (blackgrass; Rate 62 g/ha, 0 to 100 scale) was 5, the “Plant response rating, Blackgrass” value (blackgrass; Rate 125 g/ha, 0 to 100 scale) was 5 and the “Plant response rating, Blackgrass” value (blackgrass; [7]) was 10. For the same compound, the “Plant response rating, Spring Wheat” value (spring wheat [3]; [5]) was 10, the “Plant response rating, Spring Wheat” value (spring wheat [3]; [6]) was 20 and the “Plant response rating, Spring Wheat” value (spring wheat [3]; Rate 250 g/ha, 0 to 100 scale) was 30. The “Plant response rating, LS canarygrass” value (littleseed canarygrass; Rate 62 g/ha, 0 to 100 scale) was 0, the “Plant response rating, LS canarygrass” value (littleseed canarygrass; Rate 125 g/ha, 0 to 100 scale) was 20 and the “Plant response rating, LS canarygrass” value (littleseed canarygrass; [7]) was 70. For the same compound, the “Plant response rating, Spring Barley” value (spring barley; [5]) was 10, the “Plant response rating, Spring Barley” value (spring barley; [6]) was 10 and the “Plant response rating, Spring Barley” value (spring barley; Rate 250 g/ha, 0 to 100 scale) was 5. The “Plant response rating, Wild oat” value (wild oat; Rate 62 g/ha, 0 to 100 scale) was 0, the “Plant response rating, Wild oat” value (wild oat; Rate 125 g/ha, 0 to 100 scale) was 5 and the “Plant response rating, Wild oat” value (wild oat; [7]) was 20. For the same compound, the “Plant response rating, Common poppy” value (common poppy; Rate 62 g/ha, 0 to 100 scale) was 10, the “Plant response rating, Comnion poppy” value (common poppy; Rate 125 g/ha, 0 to 100 scale) was 0 and the “Plant response rating, Common poppy” value (common poppy; [7]) was 0. For the same compound, the “Plant response rating, Field violet” value (field violet [4]; Rate 62 g/ha, 0 to 100 scale) was 0, the “Plant response rating, Field violet” value (field violet [4]; Rate 125 g/ha, 0 to 100 scale) was 0 and the “Plant response rating, Field violet” value (field violet [4]; [7]) was 20. For the same compound, the “Plant response rating, Wild buckwheat” value (wild buckwheat; Rate 62 g/ha, 0 to 100 scale) was 0, the “Plant response rating, Wild buckwheat” value (wild buckwheat; Rate 125 g/ha, 0 to 100 scale) was 20 and the “Plant response rating, Wild buckwheat” value (wild buckwheat; [7]) was 10. For the same compound, the “Plant response rating, Windgrass” value (windgrass) was 80.
